Entries after “also recorded” stand apart in the source; their conditions may differ.
Assays:
loricrin = assay: Loricrin expression stain of 3D epidermis (immunohistochemistry); assay type: cell-based, human; details: 1.1 mM apical, 0.3 mM CaCl2·2H2O basal, 9 days of differentiation
Experimental: (§1) The effect of the Ca^2+ phospholipid complexes on the differentiation of 3D-reconstructed epidermis was investigated. To this end, keratinocyte progenitor cells were cultivated in low-calcium growth medium (TAK-GM, 0.03 mM calcium chloride dihydrate (CaCl2·2H2O)) and were then used to reconstruct a 3D epidermis. For this purpose, the medium was replaced by a 3D differentiation medium (TAK-3D) containing 1.1 mM CaCl2·2H2O and the cells were grown in the medium for a further day. The cultures were then contacted with the air in order to induce differentiation and formation of the skin barrier, and grown for a further 9 days with changing of the medium every second day in the following way: • Condition 1: 1.1 mM CaCl2·2H2O from the basal side (TAK-3D). This is the standard condition for efficient epidermis formation. • Condition 2: 0.3 mM CaCl2·2H2O from the basal side (low calcium concentration). The calcium concentration was reduced here in order to cause impaired formation of the epidermis and thus produce an impaired skin barrier. This is the minimum necessary calcium concentration that must be present on the basal side in order to ensure formation of the epidermis. • Condition 3: 0.3 mM CaCl2·2H2O from the basal side+1.1 mM CaCl2·2H2O from the apical side. Here, calcium was additionally added to the 3D epidermis apically in the form of calcium chloride dihydrate. […]

involucrin = assay: Involucrin expression in skin explants after topical treatment in Franz diffusion cells; assay type: cell-based; details: gel containing 0.013% CaCl2·2H2O, topical 24 hours, 20 mg
Experimental: The effect of a topical treatment with Ca^2+ phospholipid complex on the expression of the epidermis differentiation marker involucrin was investigated in skin explants. […] Thereafter, the skin explants were washed with 3 ml of water and frozen at −80° C. The tissues were fixed in formaldehyde and embedded in paraffin. Tissue sections of 5 μm were prepared and mounted on glass slides before deparaffination. The slides were stained with hematoxylin-eosin stain to analyze tissue structure. The protein expression of involucrin was determined by immunohistochemical staining and quantified by image analysis.

[1] = system: 3D-reconstructed epidermis; assay: Rebuilding of the epidermis structure in an in vitro skin model, control CaCl2 (hematoxylin-eosin stain); assay type: cell-based, human; details: 1.1 mM apical, 0.3 mM CaCl2·2H2O basal, 9 days of differentiation; dihydrate
Experimental: as §1

In the case of `O.O.[Ca+2].[Cl-].[Cl-]` [CaCl2·2H2O, calcium chloride dihydrate], the “expression of the epidermal differentiation marker loricrin” value (loricrin) is reported as “reduced loricrin production”, the “reduction of involucrin expression compared to the placebo-treated skin explant” value (involucrin) is reported as 91.1% and the “formation of 3D epidermis (hematoxylin-eosin stain)” value [1] is reported as “impairment of epidermis formation; also recorded: additionally worsened the formation of a 3D epidermis”.

— patent publication US20250025387A1, “COMPOSITION FOR THE TREATMENT OF THE SKIN OF DIABETES PATIENTS” (MIBELLE AG, priority 2021, published 2025)
